Data from patent publication US11472808B2, “Substituted pyrrolo[1,2-c]pyrimidines as hepatitis B antiviral agents” (Enanta Pharmaceuticals, Inc., priority 2019, dated 2022).
pEC50: −log10 of the molar value.

Experiments:
HBV = assay: HepAD38 anti-HBV assay: reduction of viral product accumulation (virion DNA qPCR, HBsAg/HBeAg ELISA); assay type: cell-based; conditions: Hepatitis B virus, 120 h; HepAD38 cells; concentration reducing viral product accumulation by 50% relative to no drug controls; harvest five days after compound addition; read-out: HepAD38 EC50
Summary of the method: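 EC50 values reflect 50% reduction, relative to untreated controls, in virion DNA (qPCR) or HBsAg/HBeAg (ELISA) from lysates or supernatants. Washed HepAD38 cells without tetracycline were exposed to compound for 5 days. In the 8-day variant, medium and compound were renewed on days 2 and 5.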

[1] = Compound toxicity, ATPLite total ATP levels; assay type: cell-based; conditions: human, HepG2 cells; concentration reducing total ATP levels by 50% relative to no drug controls; ATPLite three days after compound addition
Method: Compound toxicity is evaluated by seeding cells at 15,000 cells/well and treating with compound as described above.

Compound | pEC50 (HBV) | CC50 at 3 days [1]
O=S(=O)(N[C@H]1CC2=C(c3ccn(C(F)F)n3)[C@H](c3ccc(F)cc3Cl)N=C(c3nccs3)N2C1)c1cn[nH]c1 [Example 20] | > 7.00 | > 25 µM
O=S(=O)(N[C@H]1CC2=C(c3ccn(C(F)F)n3)[C@H](c3ccc(F)cc3Cl)N=C(c3nccs3)N2C1)c1cnn(S(=O)(=O)c2cn[nH]c2)c1 [Example 21] | > 7.00 | 10 to 25 µM
O=S(=O)(CCl)N[C@H]1CC2=C(c3ccn(C(F)F)n3)[C@H](c3ccc(F)cc3Cl)N=C(c3nccs3)N2C1 [Example 70] | > 7.00 | > 25 µM
O=C1OCCN1S(=O)(=O)N[C@H]1CC2=C(c3ccn(C(F)F)n3)[C@H](c3ccc(F)cc3Cl)N=C(c3nccs3)N2C1 [Example 72] | > 7.00 | > 25 µM
O=S(=O)(N[C@H]1CC2=C(c3ccn(C(F)F)n3)[C@H](c3ccc(F)cc3Cl)N=C(c3nccs3)N2C1)N1CCCCC1 [Example 73] | > 7.00 | 10 to 25 µM
O=S(=O)(N[C@H]1CC2=C(c3ccn(C(F)F)n3)[C@H](c3ccc(F)cc3Cl)N=C(c3nccs3)N2C1)N1CCOCC1 [Example 74] | > 7.00 | > 25 µM
O=S(=O)(N[C@H]1CC2=C(c3ccn(C(F)F)n3)[C@H](c3ccc(F)cc3Cl)N=C(c3nccs3)N2C1)N1CCC(O)CC1 [Example 75] | > 7.00 | > 25 µM
O=S(=O)(NCCO)N[C@H]1CC2=C(c3ccn(C(F)F)n3)[C@H](c3ccc(F)cc3Cl)N=C(c3nccs3)N2C1 [Example 78] | > 7.00 | > 25 µM
O=S(=O)(NCCCO)N[C@H]1CC2=C(c3ccn(C(F)F)n3)[C@H](c3ccc(F)cc3Cl)N=C(c3nccs3)N2C1 [Example 79] | > 7.00 | > 25 µM
COCCNS(=O)(=O)N[C@H]1CC2=C(c3ccn(C(F)F)n3)[C@H](c3ccc(F)cc3Cl)N=C(c3nccs3)N2C1 [Example 80] | > 7.00 | > 25 µM
CN(CCO)S(=O)(=O)N[C@H]1CC2=C(c3ccn(C(F)F)n3)[C@H](c3ccc(F)cc3Cl)N=C(c3nccs3)N2C1 [Example 81] | > 7.00 | > 25 µM
O=S(=O)(N[C@H]1CC2=C(c3ccn(C(F)F)n3)[C@H](c3ccc(F)cc3Cl)N=C(c3nccs3)N2C1)N1CCC(CO)CC1 [Example 88] | > 7.00 | > 25 µM
O=S(=O)(N[C@H]1CC2=C(c3ccn(C(F)F)n3)[C@H](c3ccc(F)cc3Cl)N=C(c3nccs3)N2C1)N1CCC(O)(CO)CC1 [Example 89] | > 7.00 | > 25 µM
O=S(=O)(N[C@H]1CC2=C(c3ccn(C(F)F)n3)[C@H](c3ccc(F)cc3Cl)N=C(c3nccs3)N2C1)N1CC[C@H](O)C1 [Example 91] | > 7.00 | > 25 µM
O=S(=O)(N[C@H]1CC2=C(c3ccn(C(F)F)n3)[C@H](c3ccc(F)cc3Cl)N=C(c3nccs3)N2C1)N1CC[C@@H](O)C1 [Example 92] | > 7.00 | > 25 µM
O=S(=O)(N[C@H]1CC2=C(c3ccn(C(F)F)n3)[C@H](c3ccc(F)cc3Cl)N=C(c3nccs3)N2C1)N1CCC[C@H](O)C1 [Example 93] | > 7.00 | > 25 µM
O=S(=O)(N[C@H]1CC2=C(c3ccn(C(F)F)n3)[C@H](c3ccc(F)cc3Cl)N=C(c3nccs3)N2C1)N1CCC[C@@H](O)C1 [Example 94] | > 7.00 | > 25 µM
O=S(=O)(N[C@H]1CC2=C(c3ccn(C(F)F)n3)[C@H](c3ccc(F)cc3Cl)N=C(c3nccs3)N2C1)N1CC(O)C1 [Example 95] | > 7.00 | > 25 µM
O=S(=O)(N[C@H]1CC2=C(c3ccn(C(F)F)n3)[C@H](c3ccc(F)cc3Cl)N=C(c3nccs3)N2C1)N1CCC(O)(C(O)CO)CC1 (some centres unmarked) [Example 96] | > 7.00 | > 25 µM
O=C1CCC(S(=O)(=O)N[C@H]2CC3=C(c4ccn(C(F)F)n4)[C@H](c4ccc(F)cc4Cl)N=C(c4nccs4)N3C2)CC1 [Example 97] | > 7.00 | > 25 µM
O=S(=O)(N[C@H]1CC2=C(c3ccn(C(F)F)n3)[C@H](c3ccc(F)cc3Cl)N=C(c3nccs3)N2C1)[C@H]1CC[C@H](O)CC1 [Example 98] | > 7.00 | > 25 µM

Compound | pEC50 (HBV) | CC50 at 3 days [1]
O=S(=O)(N[C@H]1CC2=C(c3ccn(C(F)F)n3)[C@H](c3ccc(F)cc3Cl)N=C(c3nccs3)N2C1)[C@H]1CC[C@@H](O)CC1 [Example 99] | > 7.00 | > 25 µM
O=S(=O)(N[C@H]1CC2=C(c3ccn(C(F)F)n3)[C@H](c3ccc(F)cc3Cl)N=C(c3nccs3)N2C1)[C@H]1CC[C@](O)(CO)CC1 [Example 100] | > 7.00 | > 25 µM
N#CCCCS(=O)(=O)N[C@H]1CC2=C(c3ccn(C(F)F)n3)[C@H](c3ccc(F)cc3Cl)N=C(c3nccs3)N2C1 [Example 135] | > 7.00 | > 25 µM
N#CCC1(O)CC2=C(c3ccn(C(F)F)n3)[C@H](c3ccc(F)cc3Cl)N=C(c3nccs3)N2C1 (some centres unmarked) [Example 140] | > 7.00 | > 25 µM
O=S1(=O)CCN(S(=O)(=O)N[C@H]2CC3=C(c4ccn(C(F)F)n4)[C@H](c4ccc(F)cc4Cl)N=C(c4nccs4)N3C2)CC1 [Example 150] | > 7.00 | > 25 µM
CS(=O)(=O)N1CCN(S(=O)(=O)N[C@H]2CC3=C(c4ccn(C(F)F)n4)[C@H](c4ccc(F)cc4Cl)N=C(c4nccs4)N3C2)CC1 [Example 151] | > 7.00 | > 25 µM
O=S(=O)(N[C@H]1CC2=C(c3ccn(C(F)F)n3)[C@H](c3ccc(F)cc3Cl)N=C(c3nccs3)N2C1)N[C@H]1CC[C@@H](O)CC1 [Example 154] | > 7.00 | > 25 µM
O=S(=O)(N[C@H]1CC2=C(c3ccn(C(F)F)n3)[C@H](c3ccc(F)cc3Cl)N=C(c3nccs3)N2C1)N[C@H]1CC[C@H](O)CC1 [Example 155] | > 7.00 | > 25 µM
O=S(=O)(N[C@H]1CC2=C(c3ccn(C(F)F)n3)[C@H](c3ccc(F)cc3Cl)N=C(c3nccs3)N2C1)N[C@H]1C[C@@H](O)C1 [Example 156] | > 7.00 | > 25 µM
O=S(=O)(N[C@H]1CC2=C(c3ccn(C(F)F)n3)[C@H](c3ccc(F)cc3Cl)N=C(c3nccs3)N2C1)N[C@H]1C[C@H](O)C1 [Example 157] | > 7.00 | > 25 µM
O=C(N[C@H]1CC2=C(c3ccn(C(F)F)n3)[C@H](c3ccc(F)cc3Cl)N=C(c3nccs3)N2C1)c1ccccc1 [Example 213] | > 7.00 | 10 to 25 µM
O=C(N[C@H]1CC2=C(c3ccn(C(F)F)n3)[C@H](c3ccc(F)cc3Cl)N=C(c3nccs3)N2C1)c1ccccn1 [Example 214] | > 7.00 | 10 to 25 µM
O=C(N[C@H]1CC2=C(c3ccn(C(F)F)n3)[C@H](c3ccc(F)cc3Cl)N=C(c3nccs3)N2C1)c1nccs1 [Example 235] | > 7.00 | > 25 µM
CC1(O)CCN(S(=O)(=O)N[C@H]2CC3=C(c4ccn(C(F)F)n4)[C@H](c4ccc(F)cc4Cl)N=C(c4nccs4)N3C2)CC1 [Example 256] | > 7.00 | > 25 µM
O=S(=O)(N[C@H]1CC2=C(c3ccn(C(F)F)n3)[C@H](c3ccc(F)cc3Cl)N=C(c3nccs3)N2C1)N1CCC(O)(c2ccccc2)CC1 [Example 257] | > 7.00 | 10 to 25 µM
O=S(=O)(N[C@H]1CC2=C(c3ccn(C(F)F)n3)[C@H](c3ccc(F)cc3Cl)N=C(c3nccs3)N2C1)N1CCC(O)(c2ccncc2)CC1 [Example 259] | > 7.00 | > 25 µM
O=S(=O)(N[C@H]1CC2=C(c3ccn(C(F)F)n3)[C@H](c3ccc(F)cc3Cl)N=C(c3nccs3)N2C1)N1CCC(O)(c2nccs2)CC1 [Example 260] | > 7.00 | > 25 µM
O=S(=O)(N[C@H]1CC2=C(c3ccn(C(F)F)n3)[C@H](c3ccc(F)cc3Cl)N=C(c3nccs3)N2C1)N1CCC(O)(c2ncco2)CC1 [Example 261] | > 7.00 | > 25 µM
O=S(=O)(N[C@H]1CC2=C(c3ccn(C(F)F)n3)[C@H](c3ccc(F)cc3Cl)N=C(c3nccs3)N2C1)N1CCC(O)(c2cccnc2)CC1 [Example 264] | > 7.00 | > 25 µM
O=S(=O)(N[C@H]1CC2=C(c3ccn(C(F)F)n3)[C@H](c3ccc(F)cc3Cl)N=C(c3nccs3)N2C1)N1CCC(O)(c2ccccn2)CC1 [Example 266] | > 7.00 | > 25 µM
O=S(=O)(CCCO)N[C@H]1CC2=C(c3ccn(C(F)F)n3)[C@H](c3ccc(F)cc3Cl)N=C(c3nccs3)N2C1 [compound 313] | > 7.00 | –
